Results: PMC5393024, “Discovery and characterization of natural tropolones as inhibitors of the antibacterial target CapF from Staphylococcus aureus” (Scientific Reports, 2015)
Where two headings read alike, the source gives them in different places.

Legend:
[1] = system: CapF; assay: NADPH consumption assay (absorbance at 340 nm); type: biochemical, Staphylococcus aureus; conditions: 0.02 μM CapF, 1.0 μM CapE, 125 μM UDP-D-GlcNAc, 250 μM NADPH, 37 °C
Protocol: A second assay monitoring the consumption of NADPH corroborates the inhibitory effect of 3-isopropenyl-tropolone (Fig. 2c). This assay is sensitive to the NADPH consumed by the SDR domain during the second reaction catalyzed by CapF (reduction step). […] Nevertheless, additional experiments were required to corroborate that idea (see below).
The enzymatic performance of CapF was evaluated by examining the consumption of NADPH spectrophotometrically, or by monitoring the disappearance of substrate and the formation of product by HPLC[9][12]. First, the time-dependent consumption of NADPH (monitored from a decrease of adsorption at 340 nm) was carried out in 384-well plates at a final volume of 50 μL. The solution contained 1.0 μM CapE, 0.02 μM CapF, 125 μM UDP-D-GlcNAc (substrate), 250 μM NADPH and fragment compounds at various concentrations in HBS supplemented with 0.005% (v/v) Tween-20 and 5% (v/v) DMSO. Each reaction mixture was incubated at 37 °C and the absorption at 340 nm was measured with a plate reader (PHERAstar, BMG Labtech, Durham, NC).
Figure S7. (a) Structure of compounds employed. (b-d) Time course of NADPH consumption by CapF in the presence of (b) tropolone, (c) 4-isopropyl-tropolone, and (d) 2-Cl-tropone. Increasing the concentration of compounds decreases the rate of consumption of NADPH. (e-g) Inhibition after two hours for (e) tropolone, (f) 4-isopropyl-tropolone, and (g) 2-Cl-tropone. Concentration of CapE and CapF was 1.0 µM and 0.02 µM, respectively. Concentration of NADPH and UDP-D-GlcNAc was 250 µM and 125 µM, respectively. The change of absorbance was calculated with respect to a control assay in the absence of CapF.
(1 picture or pasted object on this page, not shown here)

[2] = target: holo-CapF (reconstituted with Zn^2+) (Staphylococcus aureus, UniProt A0A0H3JP37); assay: ITC binding to CapF reconstituted with Zn2+ (holo-CapF)
Chain of holo-CapF (reconstituted with Zn^2+) (A0A0H3JP37 entry or part of it): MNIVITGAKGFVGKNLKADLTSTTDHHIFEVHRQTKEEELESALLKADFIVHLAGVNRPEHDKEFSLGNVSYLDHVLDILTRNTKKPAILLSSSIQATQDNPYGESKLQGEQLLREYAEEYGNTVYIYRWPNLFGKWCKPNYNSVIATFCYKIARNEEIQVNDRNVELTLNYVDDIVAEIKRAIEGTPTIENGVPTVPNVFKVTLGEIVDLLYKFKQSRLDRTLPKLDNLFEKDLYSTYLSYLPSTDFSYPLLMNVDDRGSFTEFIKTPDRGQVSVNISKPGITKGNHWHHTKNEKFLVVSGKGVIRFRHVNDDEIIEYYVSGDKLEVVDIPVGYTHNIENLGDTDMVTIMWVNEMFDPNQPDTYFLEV
Description: Because tropolone and its analogs have been described as metal chelators in proteins, we anticipated that binding of the inhibitor to CapF is governed by the Zn^2+ ion present in the cupin domain[12]. To confirm this hypothesis, we performed two different types of experiments. First, we determined the binding properties of 3-isopropenyl-tropolone to apo-CapF (i.e. Zn^2+-depleted CapF) and to holo-CapF (reconstituted with Zn^2+) by isothermal titration calorimetry (ITC). The stoichiometry is consistent with a 1:1 binding model.
Figure 3 Binding of 3-isopropenyl-tropolone to CapF requires Zn^2+. CapF (150 μM) reconstituted with Zn^2+ was titrated with 1.65 mM inhibitor in the absence (a) or the presence (b) of 1 mM EDTA. The upper panels correspond to the titration data, and the lower panels to the integrated binding isotherms. (c) Binding competition assay. CapF (1.0 μM) reconstituted with Zn^2+ in the presence of the Zn^2+-sensitive dye FluoZin-3 (1.0 μM) was titrated with 3-isopropenyl-tropolone (λEX = 490 nm; λEM = 520 nm).
Binding constants and thermodynamic parameters of the interaction between CapF and fragment compounds were determined with an iTC200 instrument (GE Healthcare) at 25 °C. Samples were equilibrated in a buffer composed of 10 mM HEPES (pH 7.4) and 150 mM NaCl supplemented with 5% (v/v) DMSO. CapF at 150–270 μM was titrated with compounds at 0.5–1.65 mM. Analysis of the data was performed with ORIGIN7 using a one-site binding model.
Figure S8. Binding isotherms of compounds with CapF as determined by ITC. (a) tropone, (b) 2-Cl-tropone, (c) tropolone, (d) 4-isopropyl-tropolone. Concentration of CapF in the cell was 150 µM, except in panel (a) where it was 270 µM. Concentration of compounds was 1.65 mM, except in panel (a) where it was 0.5 mM. Titrations were performed in an iTC200 instrument at 25 °C.
Data analysis was carried out with ORIGIN.

[3] = target: CapF; conditions: cited from earlier work

Molecule: O=c1cccccc1Cl [2-Cl-tropone]
- inhibition of NADPH consumption [1]: did not significantly inhibit
- binding to CapF by ITC ([2]; ITC, 25 °C): not detected

Molecule: CC(C)c1cccc(=O)c(O)c1 [4-isopropyl-tropolone]
- inhibition of NADPH consumption [1]: inhibited the consumption of NADPH in a concentration-dependent basis
- Kd ([2]; ITC, 25 °C, 10 mM HEPES pH 7.4, 150 mM NaCl, 5% DMSO, one-site model, read-out: KD): 1800 µM
- Kd ([2]; ITC, 25 °C, read-out: KD): 1800 µM
- n (binding stoichiometry) ([2]; ITC, stoichiometry was fixed to n = 1 in the fit): 1.0

Molecule: O=c1cccccc1O [tropolone]
- inhibition of NADPH consumption [1]: inhibited the consumption of NADPH in a concentration-dependent basis
- Kd [2]: 38 ± 7 µM
- n (binding stoichiometry) ([2]; ITC, 25 °C): 1.1 ± 0.2
- ΔH° ([2]; ITC, 25 °C): -2.9 ± 0.8 kcal/mol
- −TΔS° ([2]; ITC, 25 °C): -3.2 ± 1.0 kcal/mol
- ligand efficiency (LE = −ΔG/HAC) ([2]; from ITC binding free energy): 0.67 kcal/mol

Molecule: O=c1cccccc1 [tropone]
- inhibition of NADPH consumption [1]: did not significantly inhibit
- binding to CapF by ITC ([2]; ITC, 25 °C): not detected

Molecule: NADPH
- Kd [3]: 1.6 µM
